Results from patent US5773236A, “Assay for glutathiane transferase using polyhaloaryl-substituted reporter molecules” (Molecule Probes, Inc., priority 1997, dated 1998).
“Also recorded” adds a separate entry of the source.

Tests used:
[1] = cited from earlier work
[2] = system: Bovine pulmonary aorta endothelial cells (BPAEC); test: Glutathione adduct formation and fate of substrate in cultured animal cells, HPLC (Example 66); type: cell-based
Experimental: The solutions are mixed overnight with three volumes of ethyl acetate followed by centrifugation at 15,000×g for 30 min to separate the organic and aqueous layers. HPLC analysis using a Rainin HPLC equipped with a C18, 5 μm, 100 Å, 4.6×250 mm MICROSORB-MV reverse phase column. […] Products are detected by reading the absorbance at 500 nm.
Bovine pulmonary aorta endothelial cells (BPAEC) are removed from flasks by trypsinization and washed into fresh complete growth medium to yield 10^6 cells/mL. […] Other aliquots of the cell suspension are loaded with the same substrates for 1 hour, rinsed into fresh complete medium, then incubated in the absence of substrate for an additional 3 hr at 37° C. to look for retention and efflux of fluorescent products. At the end of each incubation period the cells are removed by centrifugation and the supernate is retained. The cell pellets are resuspended in 1 mL of E-Pure water and subjected to three freeze-thaw cycles (-80° C. to 37° C.).

[3] = system: Bovine pulmonary aorta endothelial cells (BPAEC); test: Retention of fluorescence in fixed cells (Example 66); type: cell-based; settings: 3.7% formaldehyde 30 minutes, 0.2% Triton X-100 30 minutes
β-galactosidase = test: Reactivity with thiol groups of proteins (Example 51); type: biochemical
Experimental: To test the specificity of the Compound 1 reaction with GSH versus thiol-containing proteins, β-galactosidase (a protein that has several free thiols) is dissolved at 5 mg/mL in deoxygenated 0.1M phosphate, 0.1M NaCl, pH 7.5, and reacted under anaerobic conditions with 5-(pentafluorobenzoylamino)fluorescein diacetate (Compound 4, Example 3) or Compound 1 dissolved at 10 mg/mL in DMSO at a molar ratio of the reagent to protein of 15. This assay is performed both in the presence and absence of 30 mM N-ethyl maleimide (NEM) as an effective thiol-blocking reagent. The reactions are incubated at room temperature for 1 hour, stopped by the addition of hydroxylamine, pH 9 to a final concentration of 0.15M, and incubated for 2 more hours to hydrolyze the acetate groups. […] Consequently, no reaction of either Compound 4 or Compound 1 with β-galactosidase is detected under the described conditions.

3T3 or BPAE cells [4] = test: Intracellular products of tracers by gel electrophoresis (Example 67); type: cell-based; settings: 5 μM, 1 hr, 37° C.
Experimental: (§1) Cultures of either 3T3 or BPAE cells are treated with 5 μM solutions of either Compound 4,5-(pentachlorobenzoylamino)fluorescein diacetate, 5-pentafluorobenzenesulfonylamino)fluorescein diacetate, or 5-chloromethylfluorescein diacetate (CMFDA, Molecular Probes, Inc.) for 1 hr at 37° C. The cells are spun, resuspended in distilled water and lysed by repeated freezing and thawing. 20 μL of the cell lysate supernatant is diluted with 30 μL of SDS-PAGE sample buffer, containing β-mercaptoethanol. The cell pellets are dispersed in 50 μL of water. 20 μL of each sample is added to 30 μL of the same sample buffer. The samples are heated at 95° C. for 5 min. and loaded on 4-20% polyacrylamide gradient minigels. At the completion of the run the gels are observed with UV excitation.

NIH-3T3 cells = test: Hydrolysis of esterase substrates and product retention in live cells, flow cytometry (Example 65); type: cell-based
Experimental: NIH-3T3 cells obtained from American Type Culture Collection Co., Rockville, Md. are used. They are grown in a humidified atmosphere of 5% CO2 in D-MEM supplemented with 10% bovine calf serum (BCS), 50 μg/mL gentamycin, 300 μg/mL L-glutamine and 10 mM HEPES, pH 7.4. Stock solutions of Compound 4 (Example 3), 10 mM in DMSO, and Compound 48 (Example 50), 5 mM in DMSO, are prepared. NIH-3T3 cells are trypsinized, washed with phosphate-buffered saline (PBS), pH 7.2 and resuspended in D-MEM with 10% BCS. To 1 mL of the cell suspension is added the dye stock solution to obtain a final dye concentration of 0.1 mM. Incubation is carried out at 37° C. for 30 minutes followed by incubation on ice for 30 minutes. Cells are centrifuged to form a pellet, the supernatant is discarded and the cells are washed twice with PBS, pH 7.2 and suspended in the same buffer. Cells are analyzed by flow cytometry using the Becton-Dickinson FACS Vantage flow cytometer. After analysis on the flow cytometer, cells are placed at 37° C. and analyzed by flow cytometry at frequent intervals over a period of 75 minutes. Cells stained with either of the dyes are at least 20-fold brighter than the autofluorescent control cells. Approximately 45% of Compound 4 and 35% of Compound 48 are still retained by the cells after 75 minutes of incubation at 37° C.

3T3 or BPAE cells [5] = test: Intracellular products of tracers by TLC and HPLC (Example 67); type: cell-based; settings: 5 μM, 1 hr, 37° C.
Experimental: Reaction mixtures with and without GST using Compound 1 as the substrate, are prepared as described in Example 48. The solutions are mixed overnight with three volumes of ethyl acetate followed by centrifugation at 15,000×g for 30 min to separate the organic and aqueous layers. HPLC analysis using a Rainin HPLC equipped with a C18, 5 μm, 100 Å, 4.6×250 mm MICROSORB-MV reverse phase column. Products are separated in 30 min with a gradient of 5% to 95% solvent B in Solvent A at a flow rate of 1 mL/min, where solvent A is 0.1M triethylammonium acetate, pH 7.0, and solvent B is acetonitrile (see FIG. 1). Products are detected by reading the absorbance at 500 nm. Peaks are identified and, if desired, quantitated by comparing retention times with authentic samples of the glutathione adduct of Compound 45 (Example 45).
as §1
Alternatively, the above samples are analyzed by TLC and by HPLC, as described in Examples 48 and 52. […] Coinjection with authentic Compound 1 confirms the identity of the substrate peak and coinjection with the authentic Compound 1-GSH adduct (Example 45) confirms the identify of the other fluorescent product.

[6] = 15 min, 5 μM substrate, continuous
[7] = 1 hr, washed, then additional 3 hr at 37° C.
[8] = 4 hrs, 5 μM substrate, continuous

O=[N+]([O-])c1ccc(Cl)c([N+](=O)[O-])c1 [1-Chloro-2,4-dinitrobenzene]
reaction with GSH in the presence of GST enzymes [1]: react specifically with GSH in the presence of GST enzymes

CC(=O)Oc1ccc2c(c1)Oc1cc(OC(C)=O)ccc1C21OC(=O)c2cc(NC(=O)c3c(F)c(F)c(F)c(F)c3F)ccc21 [Compound 4, 5-(pentafluorobenzoylamino)fluorescein diacetate]
GSH adduct formation in cells ([2]; 5 μM substrate, 37° C., HPLC): hydrolyzed and conjugated to glutathione; also recorded: gives rise to glutathione (GSH) adducts | EXTRACELLULAR Free dye [2, 6]: 3350 relative fluorescence units | EXTRACELLULAR Free dye, fraction of total fluorescence [2, 6]: 89.2% | EXTRACELLULAR GSH adduct [2, 6]: 97 relative fluorescence units | EXTRACELLULAR GSH adduct, fraction of total fluorescence [2, 6]: 2.6% | INTRACELLULAR Free dye [2, 6]: 237 relative fluorescence units | INTRACELLULAR Free dye, fraction of total fluorescence [2, 6]: 6.3% | INTRACELLULAR GSH adduct [2, 6]: 72 relative fluorescence units | INTRACELLULAR GSH adduct, fraction of total fluorescence [2, 6]: 1.9% | EXTRACELLULAR Free dye [2, 7]: 361 relative fluorescence units | EXTRACELLULAR Free dye, fraction of total fluorescence [2, 7]: 85.3% | EXTRACELLULAR GSH adduct [2, 7]: 62 relative fluorescence units | EXTRACELLULAR GSH adduct, fraction of total fluorescence [2, 7]: 14.7% | INTRACELLULAR Free dye [2, 7]: < 1 relative fluorescence units | INTRACELLULAR Free dye, fraction of total fluorescence [2, 7]: < 0.2% | INTRACELLULAR GSH adduct [2, 7]: < 1 relative fluorescence units | INTRACELLULAR GSH adduct, fraction of total fluorescence [2, 7]: < 0.2% | EXTRACELLULAR Free dye [2, 8]: 4498 relative fluorescence units | EXTRACELLULAR Free dye, fraction of total fluorescence [2, 8]: 86.8% | EXTRACELLULAR GSH adduct [2, 8]: 642 relative fluorescence units | EXTRACELLULAR GSH adduct, fraction of total fluorescence [2, 8]: 12.4% | INTRACELLULAR Free dye [2, 8]: 23 relative fluorescence units | INTRACELLULAR Free dye, fraction of total fluorescence [2, 8]: 0.4% | INTRACELLULAR GSH adduct [2, 8]: 21 relative fluorescence units | INTRACELLULAR GSH adduct, fraction of total fluorescence [2, 8]: 0.4% | fluorescence after fixation and permeabilization [3]: appreciably fluorescent | fluorescent proteins formed, gel electrophoresis (β-galactosidase; molar ratio of reagent to protein 15): no fluorescent proteins are formed | reaction with β-galactosidase, TLC (β-galactosidase; molar ratio of reagent to protein 15, pH 7.5, 1 hour, with and without 30 mM NEM): no reaction | fluorescent bands on gel (region of the tracking dye) (3T3 or BPAE cells [4]): Two closely spaced green fluorescent bands | protein adduct bands on gel (3T3 or BPAE cells [4]): No other band corresponding to proteins is visible | brightness versus autofluorescent control cells (NIH-3T3 cells; 0.1 mM dye, 37° C., 30 minutes then on ice 30 minutes): at least 20 fold | dye retained by the cells (NIH-3T3 cells; after 75 minutes of incubation at 37° C.): Approximately 45% | products by HPLC (3T3 or BPAE cells [5]; HPLC): two peaks | products by TLC (3T3 or BPAE cells [5]; TLC): formation of a GSH adduct

O=S1(=O)OC(c2cc(Br)c(O)c(Br)c2)(c2cc(Br)c(O)c(Br)c2)c2ccccc21 [tetrabromophenolsulfonephthalein]
reaction with GSH in the presence of GST enzymes [1]: react specifically with GSH in the presence of GST enzymes
